From patent US8969565B2, “Imidazo[1,2-b]pyridazine-based compounds, compositions comprising them, and methods of their use” (Lexicon Pharmaceuticals, Inc., priority 2012, dated 2015)

Molecular target: T1, AAK1 (Homo sapiens, UniProt Q2M2I8)
T1 construct: HA; expressed in transfected cells; host or cells: HEK293F
Test: HEK281 cell-based assay (phospho-mu2 Western blot in transfected HEK293F cells)
Conditions: 3 hours incubation, read-out: CBA IC50
Experimental: HEK293F cells were cultured in media containing DMEM (Gibco, cat. #11965), 10% FBS (SAFC Biosciences, cat. #12103C), 1×GPS (glutamine, penicillin and streptomycin). On day one, cells were plated on a 10 cm dish so that they are ˜80% confluent at time of transfection. Roughly 12 million cells were in a 10 cm dish at time of transfection. On day two, each dish was transfected with 48 ug DNA and 144 ul Lipofectamine 2000 (Invitrogen, cat.#11668-019). The DNA was comprised of a mixture (per 10 cm dish) containing 3 ug AAK1/HA/pIRES (full length human, NCBI accession no. NP_055726.2), 45 μg Flag/AP2MI/pcDNA (full length human), and 1.5 ml OPTI-MEM. The Lipofectamine 2000 is made up of a mixture (per 10 cm dish) containing 144 μl Lipofectamine 2000 and 1.5 ml OPTI-MEM. Each mixture was transferred to individual 15 ml tubes and incubated at RT for 5 minutes, and then the two mixes were combined and incubated at RT for 20 minutes. Growth media was then aspirated from each 10 cm plate and replaced with 10 ml of DMEM+10% FBS (no GPS). Finally, 3 ml DNA/Lipofectamine mix was added to each 10 cm dish and mix gently followed by incubate of plate overnight at 37° C. and 5% CO2.
On day three, compounds were diluted in 100% DMSO at 1000× final concentration, followed by 3-fold serial dilutions for a total of 5 concentrations tested. Four compounds were tested per 10 cm dish. One ul of each compound dilution was then pipetted into a deep-well, 96-well plate, followed by addition of 500 μl DMEM+0.5% FBS into each well for a 2× final concentration of each compound. Cells were resuspended in a 10 cm dish by simple pipetting (HEK293 cells come off the plate that easy at this point) and then transferred to a 50 ml conical tube and pelleted by centrifugation at 1000 rpm for 5 min. Cell pellets were then resuspended in 2.75 ml DMEM+0.5% FBS per 10 cm dish and 100 μl of cell suspension transferred into each well of 96-well TC plate. Finally, 100 μl of 2× compound diluted in DMEM+0.5% FBS was then added into wells containing cell suspension for a 1× final concentration. Plates were then incubated at 37° C. and 5% CO2 for 3 hours followed by transferring of cell suspensions from each well into 12-tube PCR strips. The PCR strips were spun in a tip rack at 1000 rpm for 5 minutes to pellet cells and media was then removed by pipetting without disturbing the cell pellet.
To prepare for Western Blot analysis, cell pellets were resuspend in 40 ul 1×LDS-PAGE sample buffer (Invitrogen, cat.#NP0008)+2× Halt phophatase and protease inhibitor cocktail (Thermo Scientific, cat.#1861284), followed by sonicating each with microtip sonicator set at 5 for 8-10 seconds. Five ul of 10× NuPage Sample Reducing Agent (with 50 mM DTT) was to each sample followed by heat denaturing at 70 C for 10 min on PCR machine. A total of 10 μl per sample was loaded into each lane of a 4-20% Tris-Glycine Criterion 26-well gel (Biorad, cat.#345-0034) for the phospho-mu2 blot and 10 μl per lane in a 4-12% Bis-Tris (+MES buffer) NuPAGE 26-well gel (Invitrogen, cat.#WG1403BX10) for the mu2 blot. For controls, 2 ng of phospho-mu2 or 20 ng mu2/Flag proteins were loaded in the last well of each gel. After SDS-PAGE, samples on each gel were transferred to PVDF membrane using an iBlot and membranes were blocked for one hour in TBST+5% milk, followed by wash 3× for 5-10 min with TBST. Criterion gels were probed with rabbit anti-phospho-mu2 (1:5000; a rabbit polyclonal antibody produced by New England Peptide and affinity purified at Lexicon) in TBST+5% BSA, whereas, NuPAGE gels were probed with mouse anti-Flag (1:500; Sigma, cat.#F1804) in TBST+5% milk, and these primary antibodies were incubated overnight at 4° C. on a rocker.

T1 sequence (Q2M2I8 1-863 isoform Q2M2I8-2): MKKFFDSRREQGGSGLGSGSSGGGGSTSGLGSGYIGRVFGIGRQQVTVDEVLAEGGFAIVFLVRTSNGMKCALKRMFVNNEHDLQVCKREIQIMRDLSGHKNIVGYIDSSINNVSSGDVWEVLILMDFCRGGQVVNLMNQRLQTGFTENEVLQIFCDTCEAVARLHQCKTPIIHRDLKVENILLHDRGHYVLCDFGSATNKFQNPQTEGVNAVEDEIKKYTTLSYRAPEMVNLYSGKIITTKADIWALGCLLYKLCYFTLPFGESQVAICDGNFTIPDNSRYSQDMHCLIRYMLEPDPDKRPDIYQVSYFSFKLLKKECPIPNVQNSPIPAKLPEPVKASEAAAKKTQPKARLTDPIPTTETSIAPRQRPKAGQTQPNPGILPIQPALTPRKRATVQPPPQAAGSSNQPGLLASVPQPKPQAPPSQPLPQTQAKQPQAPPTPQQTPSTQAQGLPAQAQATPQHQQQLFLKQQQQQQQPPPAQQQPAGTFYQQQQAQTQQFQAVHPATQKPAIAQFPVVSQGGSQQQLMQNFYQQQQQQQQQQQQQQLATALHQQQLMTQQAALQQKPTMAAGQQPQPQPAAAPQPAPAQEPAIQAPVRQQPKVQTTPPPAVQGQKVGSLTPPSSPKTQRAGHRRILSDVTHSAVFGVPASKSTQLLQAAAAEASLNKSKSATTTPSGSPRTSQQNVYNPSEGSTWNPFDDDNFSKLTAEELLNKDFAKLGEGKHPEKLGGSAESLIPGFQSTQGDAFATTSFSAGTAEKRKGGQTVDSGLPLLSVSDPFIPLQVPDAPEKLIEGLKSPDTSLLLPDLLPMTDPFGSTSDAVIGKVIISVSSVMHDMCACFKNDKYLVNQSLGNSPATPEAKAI

NCc1ccc(-c2cnc3ccc(NCCOc4ccccc4)nn23)cc1 [3-(4-(aminomethyl)phenyl)-N-(2-phenoxyethyl)imidazo[1,2-b]pyridazin-6-amine]
IC50: ≤ 1000 nM

CC(C)(C)CCNc1ccc2ncc(-c3ccc(CN)cc3)n2n1 [3-(4-(aminomethyl)phenyl)-N-(3,3-dimethylbutyl)imidazo[1,2-b]pyridazin-6-amine]
IC50: ≤ 100 nM

NCc1ccc(-c2cnc3ccc(NCCCc4ccccc4F)nn23)cc1 [3-(4-(aminomethyl)phenyl)-N-(3-(2-fluorophenyl)propyl)imidazo[1,2-b]pyridazin-6-amine]
IC50: ≤ 100 nM

NCc1ccc(-c2cnc3ccc(NCCCc4cccc(F)c4)nn23)cc1 [3-(4-(aminomethyl)phenyl)-N-(3-(3-fluorophenyl)propyl)imidazo[1,2-b]pyridazin-6-amine]
IC50: ≤ 100 nM

NCc1ccc(-c2cnc3ccc(NCCCc4ccc(F)cc4)nn23)cc1 [3-(4-(aminomethyl)phenyl)-N-(3-(4-fluorophenyl)propyl)imidazo[1,2-b]pyridazin-6-amine]
IC50: ≤ 100 nM

NCc1ccc(-c2cnc3ccc(NCCCOC4CCCC4)nn23)cc1 [3-(4-(aminomethyl)phenyl)-N-(3-(cyclopentyloxy)propyl)imidazo[1,2-b]pyridazin-6-amine]
IC50: ≤ 100 nM

CC(C)(C)OCCCNc1ccc2ncc(-c3ccc(CN)cc3)n2n1 [3-(4-(aminomethyl)phenyl)-N-(3-(tert-butoxy)propyl)imidazo[1,2-b]pyridazin-6-amine]
IC50: ≤ 100 nM

NCc1ccc(-c2cnc3ccc(NCCc4cccc(C(F)(F)F)c4)nn23)cc1 [3-(4-(aminomethyl)phenyl)-N-(3-(trifluoromethyl)phenethyl)imidazo[1,2-b]pyridazin-6-amine]
IC50: ≤ 100 nM

NCc1ccc(-c2cnc3ccc(NCCc4cccc(F)c4)nn23)cc1 [3-(4-(aminomethyl)phenyl)-N-(3-fluorophenethyl)imidazo[1,2-b]pyridazin-6-amine]
IC50: ≤ 100 nM

NCc1ccc(-c2cnc3ccc(NCCCF)nn23)cc1 [3-(4-(aminomethyl)phenyl)-N-(3-fluoropropyl)imidazo[1,2-b]pyridazin-6-amine]
IC50: ≤ 1000 nM

COc1cccc(CCNc2ccc3ncc(-c4ccc(CN)cc4)n3n2)c1 [3-(4-(aminomethyl)phenyl)-N-(3-methoxyphenethyl)imidazo[1,2-b]pyridazin-6-amine]
IC50: ≤ 100 nM

NCc1ccc(-c2cnc3ccc(NCCCCF)nn23)cc1 [3-(4-(aminomethyl)phenyl)-N-(4-fluorobutyl)imidazo[1,2-b]pyridazin-6-amine]
IC50: ≤ 100 nM

NCc1ccc(-c2cnc3ccc(NCCc4ccc(F)cc4)nn23)cc1 [3-(4-(aminomethyl)phenyl)-N-(4-fluorophenethyl)imidazo[1,2-b]pyridazin-6-amine]
IC50: ≤ 1000 nM

COc1ccc(CCNc2ccc3ncc(-c4ccc(CN)cc4)n3n2)cc1 [3-(4-(aminomethyl)phenyl)-N-(4-methoxyphenethyl)imidazo[1,2-b]pyridazin-6-amine]
IC50: ≤ 100 nM

NCc1ccc(-c2cnc3ccc(NCCCCc4ccccc4)nn23)cc1 [3-(4-(aminomethyl)phenyl)-N-(4-phenylbutyl)imidazo[1,2-b]pyridazin-6-amine]
IC50: ≤ 100 nM

NCc1ccc(-c2cnc3ccc(NCCCCCF)nn23)cc1 [3-(4-(aminomethyl)phenyl)-N-(5-fluoropentyl)imidazo[1,2-b]pyridazin-6-amine]
IC50: ≤ 1000 nM

NCc1ccc(-c2cnc3ccc(NCC4CCOC4)nn23)cc1 (centres unmarked) [3-(4-(aminomethyl)phenyl)-N-((tetrahydrofuran-3-yl)methyl)imidazo[1,2-b]pyridazin-6-amine]
IC50: ≤ 1000 nM

NCc1ccc(-c2cnc3ccc(NCC4CCC4)nn23)cc1 [3-(4-(aminomethyl)phenyl)-N-(cyclobutylmethyl)imidazo[1,2-b]pyridazin-6-amine]
IC50: ≤ 1000 nM

NCc1ccc(-c2cnc3ccc(NCC4CCCC4)nn23)cc1 [3-(4-(aminomethyl)phenyl)-N-(cyclopentylmethyl)imidazo[1,2-b]pyridazin-6-amine]
IC50: ≤ 1000 nM

NCc1ccc(-c2cnc3ccc(NCC4CC4)nn23)cc1 [3-(4-(aminomethyl)phenyl)-N-(cyclopropylmethyl)imidazo[1,2-b]pyridazin-6-amine]
IC50: ≤ 1000 nM

CC(C)CNc1ccc2ncc(-c3ccc(CN)cc3)n2n1 [3-(4-(aminomethyl)phenyl)-N-isobutylimidazo[1,2-b]pyridazin-6-amine]
IC50: ≤ 1000 nM

CC(C)CCNc1ccc2ncc(-c3ccc(CN)cc3)n2n1 [3-(4-(aminomethyl)phenyl)-N-isopentylimidazo[1,2-b]pyridazin-6-amine]
IC50: ≤ 1000 nM

CC(C)(C)CNc1ccc2ncc(-c3ccc(CN)cc3)n2n1 [3-(4-(aminomethyl)phenyl)-N-neopentylimidazo[1,2-b]pyridazin-6-amine]
IC50: ≤ 100 nM

CCCCCNc1ccc2ncc(-c3ccc(CN)cc3)n2n1 [3-(4-(aminomethyl)phenyl)-N-pentylimidazo[1,2-b]pyridazin-6-amine]
IC50: ≤ 1000 nM

NCc1ccc(-c2cnc3ccc(NCCc4ccccc4)nn23)cc1 [3-(4-(aminomethyl)phenyl)-N-phenethylimidazo[1,2-b]pyridazin-6-amine]
IC50: ≤ 1000 nM

CCCNc1ccc2ncc(-c3ccc(CN)cc3)n2n1 [3-(4-(aminomethyl)phenyl)-N-propylimidazo[1,2-b]pyridazin-6-amine]
IC50: ≤ 1000 nM

CC(C)OC(=O)N1CCN(c2ccc3ncc(-c4ccccc4)n3n2)CC1 [4-(3-Phenyl-imidazo[1,2-b]pyridazin-6-yl)-piperazine-1-carboxylic acid isopropyl ester]
IC50: ≤ 100 nM

CN(CCNc1ccc2ncc(-c3ccc(C(N)=O)cc3)n2n1)C(=O)CC(C)(C)C [4-(6-((2-(N,3,3-trimethylbutanamido)ethyl)amino)imidazo[1,2-b]pyridazin-3-yl)benzamide]
IC50: ≤ 100 nM

CCN(CC)CCNC(=O)c1ccc(-c2cnc3ccc(NCCOC(C)(C)C)nn23)cc1 [4-(6-((2-(tert-butoxy)ethyl)amino)imidazo[1,2-b]pyridazin-3-yl)-N-(2-(diethylamino)ethyl)benzamide]
IC50: ≤ 100 nM

CNC(=O)c1ccc(-c2cnc3ccc(NCCOC(C)(C)C)nn23)cc1 [4-(6-((2-(tert-butoxy)ethyl)amino)imidazo[1,2-b]pyridazin-3-yl)-N-methylbenzamide]
IC50: ≤ 100 nM

NC(=O)c1ccc(-c2cnc3ccc(NCCc4ccccc4OC(F)(F)F)nn23)cc1 [4-(6-((2-(trifluoromethoxy)phenethyl)amino)imidazo[1,2-b]pyridazin-3-yl)benzamide]
IC50: ≤ 10 nM

CCOc1ccccc1CCNc1ccc2ncc(-c3ccc(C(=O)NC)cc3)n2n1 [4-(6-((2-ethoxyphenethyl)amino)imidazo[1,2-b]pyridazin-3-yl)-N-methylbenzamide]
IC50: ≤ 10 nM

CC(C)COCCNc1ccc2ncc(-c3ccc(C(=O)NCCN4CCCC4)cc3)n2n1 [4-(6-((2-isobutoxyethyl)amino)imidazo[1,2-b]pyridazin-3-yl)-N-(2-(pyrrolidin-1-yl)ethyl)benzamide]
IC50: ≤ 100 nM

CC(C)OCCNc1ccc2ncc(-c3ccc(C(=O)NCCN4CCCC4)cc3)n2n1 [4-(6-((2-isopropoxyethyl)amino)imidazo[1,2-b]pyridazin-3-yl)-N-(2-(pyrrolidin-1-yl)ethyl)benzamide]
IC50: ≤ 100 nM

COc1ccccc1CCNc1ccc2ncc(-c3ccc(C(N)=O)cc3)n2n1 [4-(6-((2-methoxyphenethyl)amino)imidazo[1,2-b]pyridazin-3-yl)benzamide]
IC50: ≤ 10 nM
